IC50 data for 23 compounds are collected here from BindingDB's records for doi:10.1016/j.ejmech.2023.115171 (Shenyang Pharmaceutical University, 2023).

The test has as its target Hypoxia-inducible factor 1-alpha. As to the kind of experiment: Inhibition of HIF-1 alpha transcriptional activity in human U-251 cells incubated for 24 hrs under hypoxia condition by luciferse reporter assay. A general note: A reporter such as luciferase makes a cellular process visible.
By IC50 is commonly meant the midpoint of a concentration-inhibition curve. A lower IC50 goes with greater potency in that assay. The compound `COc1ccc(/C=C/C(=O)c2ccc3c(c2O)C=CC(C)(C)O3)cc1OCCCN1CCCC1` gave an IC50 of 2.38 µM.

Compound `COc1cc(/C=C/C(=O)c2ccc3c(c2O)C=CC(C)(C)O3)ccc1OCCCN1CCN(C)CC1` returned an IC50 of 5.76 µM.

The compound `COc1ccc(/C=C/C(=O)c2ccc3c(c2O)C=CC(C)(C)O3)cc1OCCN1CCN(C)CC1` had an IC50 of 3.6 µM.

Turning to `COc1cc(/C=C/C(=O)c2ccc3c(c2O)C=CC(C)(C)O3)ccc1OCCCN1CCCCC1`, the IC50 is 5.55 µM.

For the compound `CCN(CC)CCOc1ccc(/C=C/C(=O)c2ccc3c(c2O)C=CC(C)(C)O3)cc1OC`, the IC50 worked out at 6.29 µM.

The compound `CCN(CC)CCCOc1cc(/C=C/C(=O)c2ccc3c(c2O)C=CC(C)(C)O3)ccc1OC` displayed an IC50 of 5.65 µM.

As for `COc1ccc(/C=C/C(=O)c2ccc3c(c2O)C=CC(C)(C)O3)cc1OCCN1CCOCC1`, 10.6 µM corresponded to half-maximal inhibition (IC50).

Regarding `COc1cc(/C=C/C(=O)c2ccc3c(c2O)C=CC(C)(C)O3)ccc1OCCCN1CCC(C)CC1`, it took 3.78 µM to reach half-maximal inhibition (IC50).

`COc1ccc(/C=C/C(=O)c2ccc3c(c2O)C=CC(C)(C)O3)cc1OCCCN1CCCCC1` returned a 50% inhibitory concentration (IC50) of 5.38 µM.

In the case of `COc1cc(/C=C/C(=O)c2ccc3c(c2O)C=CC(C)(C)O3)ccc1OCCN1CCC(C)CC1`, the IC50 is 5.75 µM.

Regarding `COc1cc(/C=C/C(=O)c2ccc3c(c2O)C=CC(C)(C)O3)ccc1OCCN1CCN(C)CC1`, the IC50 was 3.6 µM.

The compound `COc1cc(/C=C/C(=O)c2ccc3c(c2O)C=CC(C)(C)O3)ccc1OCCCN1CCOCC1` came in with an IC50 of 10.5 µM.

The compound `COc1ccc(/C=C/C(=O)c2ccc3c(c2O)C=CC(C)(C)O3)cc1OCCN1CCC(C)CC1` gave an IC50 of 3.99 µM.

In turn, `COc1cc(/C=C/C(=O)c2ccc3c(c2O)C=CC(C)(C)O3)ccc1OCCN1CCOCC1` came in with an IC50 of 8.09 µM.

`COc1ccc(/C=C/C(=O)c2ccc3c(c2O)C=CC(C)(C)O3)cc1OCCCN1CCOCC1` registered an IC50 of 3.31 µM.

In turn, `CCN(CC)CCCOc1ccc(/C=C/C(=O)c2ccc3c(c2O)C=CC(C)(C)O3)cc1OC` displayed a half-maximal inhibitory concentration (IC50) of 6.3 µM.

Compound `COc1cc(/C=C/C(=O)c2ccc3c(c2O)C=CC(C)(C)O3)ccc1OCCN1CCCCC1` came in with an IC50 of 5.4 µM.

`COc1ccc(/C=C/C(=O)c2ccc3c(c2O)C=CC(C)(C)O3)cc1OCCN1CCCC1` came in with an IC50 of 2.38 µM.

For `COc1cc(/C=C/C(=O)c2ccc3c(c2O)C=CC(C)(C)O3)ccc1OCCCN1CCCC1`, the IC50 turned out to be 2.97 µM.

Turning to `COc1cc(/C=C/C(=O)c2ccc3c(c2O)C=CC(C)(C)O3)ccc1OCCN1CCCC1`, it took 6.45 µM to reach half-maximal inhibition (IC50).

`COc1ccc(/C=C/C(=O)c2ccc3c(c2O)C=CC(C)(C)O3)cc1OCCCN1CCC(C)CC1` yielded an IC50 of 6.23 µM.

On to `COc1ccc(/C=C/C(=O)c2ccc3c(c2O)C=CC(C)(C)O3)cc1O`, for which the IC50 was determined as 6.98 µM.

The compound `COc1ccc(/C=C/C(=O)c2ccc3c(c2O)C=CC(C)(C)O3)cc1OCCCN1CCN(C)CC1` yielded an IC50 of 5.19 µM.
